Structures can show the parent of a compound that is named as a salt.
Experiments:
[1] = Auditory Brainstem Response (ABR) Assay; format: in vivo, rats; settings: Day 24 vs Day 0, FIG. 2
Procedure: Chronic treatment of rats with aminoglycosides (AGs) such as kanamycin or amikacin results in an elevation of ABR thresholds, typically most pronounced at higher frequencies. For rats, hearing is tested at a range of frequencies to determine the intensity of sound (measured in decibels) necessary to evoke a response. As hearing loss becomes more severe, a higher intensity is needed to evoke a response. Each rat serves as its own control; hearing thresholds are determined at each frequency prior to any treatment and then at 2 weeks after a 10-day course of AG treatment (or control drug exposures).
The ABR assay measures short latency field potentials recorded from the scalp of animals that were sedated or noninvasively immobilized. […] For each animal, hearing thresholds, wave 1 latencies and input-output functions for stimulus frequencies at 2, 4, 8, 16 and 32 kHz were measured prior to any treatment to determine the initial sensitivity and dynamic range of hearing, and then repeated at the end of drug treatment and at the end of the experiment (2-weeks after dosing). […]
ABR records were evaluated by a “blinded”, trained experimenter. Hearing loss (Threshold Shift) was determined by subtracting the threshold during pre-treatment (Day 0) from the final ABR threshold (Day 24; two weeks following treatment). […]

[2] = Effect of Amikacin and Compound 9 on Kidney Function: creatinine clearance; format: in vivo, Fischer 344 rats; settings: FIG. 3
Procedure: (§1) The study consisted of three groups of Fischer 344 rats aged 6 weeks and weighing approximately 200 g at the start of the study. Group 1 consisted of six rats, randomly selected to receive amikacin only, Group 2 consisted of six rats chosen randomly to receive amikacin and compound 9, and Group 3 consisted of three rats, 2 rats given compound 9 and 1 rat given only 0.5% Methylcellulose, the diluent for compound 9. All animals receiving amikacin were given 320 mg/kg subcutaneously (SQ) from a freshly prepared solution of amikacin of 40 mg/mL. The compound 9 formulation was prepared by weighing 13.08 mg of compound 9 dissolved in 12 mL of 0.5% MC in saline with vortexing, sonification and homogenization to obtain a solution with concentration at 12 mg/12 mL=1 mg/mL, dose volume is 5 mL/kg (5 mg/kg). The compound 9 solution was given by oral gavage at a dose of 5 mg/kg.
(§2) One day prior to the onset of dosing, blood was drawn from all rats for serum analysis and all rats were put into metabolic cages for 24 hour urine collection and analysis. All rats were returned to normal cages and allowed to eat and drink ad lib. All rats received their assigned treatments for 10 days and then were returned to metabolic cages for the 10th day. […] The pathologist read the slides, blinded to the group from which they were assigned. […]

kidney = test: Kidney histopathology after amikacin with or without compound 9; format: in vivo, Fischer 344 rats; settings: amikacin only, section type (longitudinal or cross) not stated, FIG. 4
Procedure: as §1, §2

Row | SMILES | Hearing loss (Threshold Shift) ([1]; amikacin alone SC 320 mg/kg/day for 10 days) | creatinine clearance (CrCl) post treatment vs baseline ([2]; Group 1: amikacin only 320 mg/kg SQ for 10 days) | kidney histopathology damage score (0-4) (kidney; first stated change (3.9 to 3.6)) | kidney histopathology damage score (0-4) (kidney; second stated change (3.9 to 3.1)) | Hearing loss (Threshold Shift), high frequency ([1]; AMI/320 (amikacin SC 320 mg/kg/day) + Compound 9 PO 5 mg/kg/day for 10 days) | creatinine clearance (CrCl) post treatment vs baseline ([2]; Group 2: amikacin 320 mg/kg SQ + compound 9 5 mg/kg oral gavage for 10 days)
1 | NCC[C@H](O)C(=O)N[C@@H]1C[C@H](N)[C@@H](O[C@H]2O[C@H](CN)[C@@H](O)[C@H](O)[C@H]2O)[C@H](O)[C@H]1O[C@H]1O[C@H](CO)[C@@H](O)[C@H](N)[C@H]1O [amikacin] | hearing loss | significantly different from baseline | 3.9 | 3.9 |  | 
2 | CN1[C@H]2CC[C@@H]1c1c(sc(NC(=O)Nc3ccc(Cl)cc3)c1C(N)=O)C2 [Compound 9, (4R,7S)-2-(3-(4-chlorophenyl)ureido)-9-methyl-5,6,7,8-tetrahydro-4H-4,7-epiminocyclohepta[b]thiophene-3-carboxamide hydrochloride] |  |  |  |  | robust protection | significantly different from baseline

Reference: patent US9493482B2, “Compounds and methods for preventing or treating sensory hair cell death” (University of Washington, priority 2015, dated 2016)
